# Laboratory results taken from PMC8659148, “Drug Repurposing for Influenza Virus Polymerase Acidic (PA) Endonuclease Inhibitor” (Molecules, 2021).
# Molecular target: mutant PAN-I38T endonuclease (Influenza A virus, UniProt P03433, I38T)
# Format: biochemical, influenza A type virus (H1N1)
row,SMILES,inhibition of the endonuclease activity of PAN-I38T (in words)
1,CS(=O)(=O)c1cccc(C[C@H](NC(=O)c2c(Cl)cc3c(c2Cl)CCN(C(=O)c2ccc4ccoc4c2)C3)C(=O)O)c1 [lifitegrast],inhibitory effect
2,CC(C)(C)NC(=O)[C@@H]1C[C@@H]2CCCC[C@@H]2CN1C[C@@H](O)[C@H](Cc1ccccc1)NC(=O)[C@H](CC(N)=O)NC(=O)c1ccc2ccccc2n1 [saquinavir],no inhibition
3,CO[C@H]1/C=C/O[C@@]2(C)Oc3c(C)c(O)c4c(O)c(c5c(nc6cc(C)ccn65)c4c3C2=O)NC(=O)/C(C)=C\C=C\[C@H](C)[C@H](O)[C@@H](C)[C@@H](O)[C@@H](C)[C@H](OC(C)=O)[C@@H]1C [rifaximin],no inhibition
4,O=C1[C@@H]2[C@H]3CC[C@H](C3)[C@@H]2C(=O)N1C[C@@H]1CCCC[C@H]1CN1CCN(c2nsc3ccccc23)CC1 [lurasidone],no inhibition
5,C[C@]12C=CC(=O)N[C@@H]1CC[C@@H]1[C@@H]2CC[C@]2(C)[C@@H](C(=O)Nc3cc(C(F)(F)F)ccc3C(F)(F)F)CC[C@@H]12 [dutasteride],no inhibition
